pIC50: −log10 of the molar value.
Experiments:
MDA-MB-231 (2LMP) cells = assay: Cell growth of MDA-MB-231 (2LMP) cells (WST); type: cell-based; details: Homo sapiens, read-out: IC50 of cell growth inhibition
Bcl-2 = Bcl-2 (Homo sapiens, UniProt P10415); assay: Fluorescence polarization in vitro Bcl-2 binding assay
Procedure: Bcl-2 used in this assay is a recombinant His-fused soluble protein. […] Inc., Research Triangle Park, N.C.). […] The unlabeled Bid peptide is used as the positive control. The Ki values were calculated using our developed equation for FP assay (Nikolovska-Coleska et al., Anal. Biochem., 2004, in press). The program for calculating a Ki value is available free of charge via the Internet at http://sw16.im.med.umich.edu/software/calc_ki/.

human Bcl-xL = human Bcl-xL (Homo sapiens, UniProt Q07817); assay: Fluorescence polarization in vitro Bcl-xL binding assay; details: displacement of Flu-Bak peptide
Chain of human Bcl-xL (Q07817 1-209 limits assumed): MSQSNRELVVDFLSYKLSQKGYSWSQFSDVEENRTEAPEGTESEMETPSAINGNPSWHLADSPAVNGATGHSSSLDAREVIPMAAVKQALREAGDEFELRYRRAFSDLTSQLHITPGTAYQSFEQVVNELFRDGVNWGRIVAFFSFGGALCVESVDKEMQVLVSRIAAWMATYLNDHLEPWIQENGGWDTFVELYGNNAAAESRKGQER
From the text: For determination of the binding affinity to Bcl-xL protein a human Bcl-xL recombinant His-tagged protein without the C-terminus hydrophobic tail and the Bak-16mer BH3 peptide labeled with 6-carboxyfluorescein succinimidyl ester (FAM) were used.

Chain of Bcl-2 (P10415 92-205 limits assumed): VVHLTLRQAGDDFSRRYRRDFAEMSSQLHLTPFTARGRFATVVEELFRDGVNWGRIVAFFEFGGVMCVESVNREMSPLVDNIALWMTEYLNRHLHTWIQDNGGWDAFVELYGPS

Row | SMILES | pIC50 (MDA-MB-231 (2LMP) cells) | pIC50 (Bcl-2) | pIC50 (human Bcl-xL)
1 | CC(C)c1cc(Cc2cc(Cc3ccccc3)c(O)c(O)c2O)ccc1Oc1ccc([N+](=O)[O-])cc1C(F)(F)F [TM-155] | 4.70 to 7.00 |  | 
2 | Cc1cc(Cc2cc(Cc3ccccc3)c(O)c(O)c2O)c(C(C)C)cc1Oc1ccc(C(F)(F)F)cc1[N+](=O)[O-] [TM-144] | 4.70 to 7.00 |  | 
3 | O=C(c1cccc(Br)c1)c1cc(CCCc2ccccc2)c(O)c(O)c1O [TM-137] | 4.70 to 7.00 |  | 
4 | O=C(c1cc(S(=O)(=O)N2CCc3ccccc3C2)c(O)c(O)c1O)N1CCc2ccc(S(=O)(=O)N3CCC(Cc4ccccc4)CC3)cc2C1 [TM-1203] |  | ≥ 6.00 | < 6.00
5 | CCCCCCCCCCCc1cc(O)c(O)c(O)c1CCCc1ccccc1 [TM-130] | 4.70 to 7.00 |  | 
6 | O=C(c1cc(S(=O)(=O)N2CCc3ccccc3C2)c(O)c(O)c1O)N1CCc2ccc(S(=O)(=O)N[C@@H](Cc3ccccc3)C(=O)N3CCN(C(=O)C(F)(F)F)CC3)cc2C1 [TM-1202] |  | < 6.00 | < 6.00
7 | O=C(c1cc(C(=O)c2cccc3ccccc23)c(O)c(O)c1O)c1cccc2ccccc12 [TM-174] |  | < 6.00 | < 6.00
8 | CNS(=O)(=O)c1cc(C(=O)N2CCc3ccc(S(=O)(=O)NCCc4ccccc4)cc3C2)c(O)c(O)c1O [TM-1217] |  | < 6.00 | < 6.00
9 | O=C(NCc1ccccc1)c1cc(S(=O)(=O)N2CCc3ccc(S(=O)(=O)N4CCCCC4)cc3C2)c(O)c(O)c1O [TM-192] |  | ≥ 6.00 | < 6.00
10 | CC(C)c1cc(Cc2cc(Cc3ccccc3)c(O)c(O)c2O)ccc1O [TM-152] | 4.70 to 7.00 |  | 
11 | CCCCCC(=O)c1cc(C(C)C)c(O)c(O)c1O [TM-104] | 4.70 to 7.00 |  | 
12 | O=C(c1ccc(Oc2ccccc2)cc1)c1cc(C(=O)c2cccc3ccccc23)c(O)c(O)c1O [TM-168] | 4.70 to 7.00 |  | 
13 | CCCCCCc1cc(C(C)C)c(O)c(O)c1O [TM-103] | 4.70 to 7.00 |  | 
14 | CNS(=O)(=O)c1ccc2c(c1)CN(C(=O)c1cc(S(=O)(=O)N3CCc4ccccc4C3)c(O)c(O)c1O)CC2 [TM-1215] |  | < 6.00 | < 6.00
15 | Cc1cc(C(=O)c2cc(Cc3ccccc3)c(O)c(O)c2O)c(C(C)C)cc1O [TM-143] | < 4.70 |  | 
16 | O=C(c1cc(S(=O)(=O)N2CCc3ccccc3C2)c(O)c(O)c1O)N1CCc2ccc(S(=O)(=O)NCCCc3ccccc3)cc2C1 [TM-1213] |  | ≥ 6.00 | < 6.00
17 | NC(=O)[C@H](Cc1ccccc1)NS(=O)(=O)c1ccc2c(c1)CN(C(=O)c1cc(S(=O)(=O)N3CCc4ccccc4C3)c(O)c(O)c1O)CC2 [TM-199] |  | < 6.00 | < 6.00
18 | O=C(c1ccc(Oc2ccccc2)cc1)c1cc(C(=O)c2ccc(Oc3ccccc3)cc2)c(O)c(O)c1O [TM-170] | 4.70 to 7.00 |  | 
19 | Oc1c(CCc2ccccc2)cc(Cc2ccc(Oc3ccccc3)cc2)c(O)c1O [TM-162] |  |  | < 6.00
20 | O=C(c1cc(S(=O)(=O)N2CCc3ccccc3C2)c(O)c(O)c1O)N1CCc2ccc(S(=O)(=O)NCc3ccccc3)cc2C1 [TM-196] |  | < 6.00 | < 6.00
21 | O=C(c1cc(S(=O)(=O)N2CCc3ccccc3C2)c(O)c(O)c1O)N1CCc2ccc(S(=O)(=O)N[C@@H](Cc3ccccc3)C(=O)N3CCCCC3)cc2C1 [TM-1200] |  | < 6.00 | < 6.00
22 | Cc1cc(Cc2cc(Cc3ccccc3)c(O)c(O)c2O)c(C(C)C)cc1Oc1ccc([N+](=O)[O-])cc1C(F)(F)F [TM-146] | 4.70 to 7.00 |  | 
23 | O=C(c1ccc(Br)cc1)c1cc(CCCc2ccccc2)c(O)c(O)c1O [TM-128] | 4.70 to 7.00 |  | 

Row | SMILES | pIC50 (MDA-MB-231 (2LMP) cells) | pIC50 (Bcl-2) | pIC50 (human Bcl-xL)
24 | O=C(c1cc(S(=O)(=O)N2CCc3ccccc3C2)c(O)c(O)c1O)N1CCc2ccc(S(=O)(=O)NCCc3cccc(Cl)c3)cc2C1 [TM-1208] |  | ≥ 6.00 | < 6.00
25 | Oc1c(CCCc2ccccc2)cc(Cc2ccc(Oc3ccccc3)cc2)c(O)c1O [TM-163] |  |  | < 6.00
26 | O=C(c1cc(S(=O)(=O)N2CCc3ccccc3C2)c(O)c(O)c1O)N1CCc2ccc(S(=O)(=O)NCCc3cccc(Oc4ccccc4)c3)cc2C1 [TM-1211] |  | ≥ 6.00 | < 6.00
27 | Oc1cccc(Cc2ccc(Cc3cc(CCCC4CCCCC4)c(O)c(O)c3O)cc2)c1O [TM-136] | 4.70 to 7.00 |  | 
28 | CN(CCc1ccccc1)S(=O)(=O)c1ccc2c(c1)CN(C(=O)c1cc(S(=O)(=O)N3CCc4ccccc4C3)c(O)c(O)c1O)CC2 [TM-1207] |  | ≥ 6.00 | < 6.00
29 | CCC(CC)CNS(=O)(=O)c1ccc2c(c1)CN(C(=O)c1cc(S(=O)(=O)N3CCc4ccccc4C3)c(O)c(O)c1O)CC2 [TM-1216] |  | ≥ 6.00 | < 6.00
30 | O=C(c1ccc(Oc2ccccc2)cc1)c1cc(C(=O)c2nc3ccccc3o2)c(O)c(O)c1O [TM-183] |  |  | < 6.00
31 | O=C(c1cc(S(=O)(=O)N2CCc3ccccc3C2)c(O)c(O)c1O)N1CCc2ccc(S(=O)(=O)NCCc3ccc(Oc4ccccc4)cc3)cc2C1 [TM-1212] |  | < 6.00 | < 6.00
32 | O=C(c1cc(S(=O)(=O)N2CCc3ccc(S(=O)(=O)N4CCCCC4)cc3C2)c(O)c(O)c1O)N1CCc2ccccc2C1 [TM-190] |  | ≥ 6.00 | < 6.00
33 | O=C(c1cc(S(=O)(=O)N2CCc3ccccc3C2)c(O)c(O)c1O)N1CCc2ccccc2C1 [TM-1214] |  | < 6.00 | < 6.00
34 | O=C(c1cc(S(=O)(=O)N2CCc3ccccc3C2)c(O)c(O)c1O)N1CCc2ccc(S(=O)(=O)NCC(c3ccccc3)c3ccccc3)cc2C1 [TM-198] |  | < 6.00 | < 6.00
35 | O=C(c1cc(S(=O)(=O)N2CCc3ccccc3C2)c(O)c(O)c1O)N1CCc2ccc(S(=O)(=O)Nc3ccccc3)cc2C1 [TM-195] |  | < 6.00 | < 6.00
36 | NS(=O)(=O)c1ccc(CCNS(=O)(=O)c2ccc3c(c2)CN(C(=O)c2cc(S(=O)(=O)N4CCc5ccccc5C4)c(O)c(O)c2O)CC3)cc1 [TM-1210] |  | ≥ 6.00 | < 6.00
37 | CC(C)CNS(=O)(=O)c1ccc2c(c1)CN(C(=O)c1cc(S(=O)(=O)N3CCc4ccccc4C3)c(O)c(O)c1O)CC2 [TM-194] |  | < 6.00 | < 6.00
38 | COc1c(C(=O)C2N=C3C=CC=CC3S2)cc(C(=O)C2N=C3C=CC=CC3S2)c(O)c1O (stereo not drawn) [TM-178] |  | < 6.00 | < 6.00
39 | O=C(c1cc(S(=O)(=O)N2CCc3ccccc3C2)c(O)c(O)c1O)N1CCc2ccc(S(=O)(=O)NCCc3ccccc3)cc2C1 [TM-197] |  | ≥ 6.00 | < 6.00
40 | CN(CCc1ccccc1)S(=O)(=O)c1cc(C(=O)N2CCc3ccc(S(=O)(=O)NCCc4ccccc4)cc3C2)c(O)c(O)c1O [TM-1205] |  | ≥ 6.00 | < 6.00
41 | O=C(c1cc(C(=O)C2N=C3C=CC=CC3S2)c(O)c(O)c1O)C1N=C2C=CC=CC2S1 (stereo not drawn) [TM-176] |  | < 6.00 | < 6.00
42 | CN(Cc1ccccc1)S(=O)(=O)c1cc(C(=O)N2CCc3ccc(S(=O)(=O)NCCc4ccccc4)cc3C2)c(O)c(O)c1O [TM-1201] |  | < 6.00 | < 6.00
43 | O=C(c1cc(S(=O)(=O)N2CCc3ccccc3C2)c(O)c(O)c1O)N1CCc2ccc(S(=O)(=O)NCCc3ccc(Cl)cc3)cc2C1 [TM-1209] |  | ≥ 6.00 | < 6.00
44 | O=C(c1cc(S(=O)(=O)N2CCc3ccccc3C2)c(O)c(O)c1O)N1CCc2ccc(S(=O)(=O)N3CCCCC3)cc2C1 [TM-193] |  | < 6.00 | < 6.00
45 | O=C(c1ccc2ccccc2c1)c1cc(C(=O)c2ccc3ccccc3c2)c(O)c(O)c1O [TM-175] |  | < 6.00 | < 6.00
46 | Oc1ccc(Cc2ccc(Oc3ccccc3)cc2)c(O)c1O [TM-157] |  |  | < 6.00
